Experiments:
Test in all cases: FLIPR membrane potential
Type in all cases: cell-based
Conditions in all cases: concentration used for PAM testing
[1] = molecular target: human α6β2γ2s GABAA receptor (Homo sapiens, UniProt P18507+P47870+Q16445)
[2] = molecular target: T1, human α1β2δ GABAA receptor (Homo sapiens, UniProt O14764+P14867+P47870)
T1 sequence (P14867 28-456): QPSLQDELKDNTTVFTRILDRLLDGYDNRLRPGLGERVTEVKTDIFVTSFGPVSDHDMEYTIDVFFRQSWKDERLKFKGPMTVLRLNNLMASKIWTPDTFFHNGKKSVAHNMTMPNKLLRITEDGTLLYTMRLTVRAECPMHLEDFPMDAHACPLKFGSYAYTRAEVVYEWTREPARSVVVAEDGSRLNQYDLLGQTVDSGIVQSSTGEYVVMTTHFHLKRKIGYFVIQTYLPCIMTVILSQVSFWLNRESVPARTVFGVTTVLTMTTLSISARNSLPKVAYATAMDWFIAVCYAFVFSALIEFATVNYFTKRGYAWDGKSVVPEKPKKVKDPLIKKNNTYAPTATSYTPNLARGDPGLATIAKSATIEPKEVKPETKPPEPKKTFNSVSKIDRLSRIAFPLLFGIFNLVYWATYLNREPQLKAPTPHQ
T1 sequence (P47870 25-512 limits assumed): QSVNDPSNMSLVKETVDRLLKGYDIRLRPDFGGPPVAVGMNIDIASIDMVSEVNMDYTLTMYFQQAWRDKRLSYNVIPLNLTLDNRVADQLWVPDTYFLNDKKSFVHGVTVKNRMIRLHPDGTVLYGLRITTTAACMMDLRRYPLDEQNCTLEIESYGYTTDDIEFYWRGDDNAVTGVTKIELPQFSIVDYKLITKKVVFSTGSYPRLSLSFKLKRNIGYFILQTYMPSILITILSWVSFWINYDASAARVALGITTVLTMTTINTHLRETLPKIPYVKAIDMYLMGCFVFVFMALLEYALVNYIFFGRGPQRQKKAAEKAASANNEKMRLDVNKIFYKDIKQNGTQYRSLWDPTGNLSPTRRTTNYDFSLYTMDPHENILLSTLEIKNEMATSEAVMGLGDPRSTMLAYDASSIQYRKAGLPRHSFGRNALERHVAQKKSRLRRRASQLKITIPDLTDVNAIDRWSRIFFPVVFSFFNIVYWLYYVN
T1 sequence (O14764 17-452 limits assumed): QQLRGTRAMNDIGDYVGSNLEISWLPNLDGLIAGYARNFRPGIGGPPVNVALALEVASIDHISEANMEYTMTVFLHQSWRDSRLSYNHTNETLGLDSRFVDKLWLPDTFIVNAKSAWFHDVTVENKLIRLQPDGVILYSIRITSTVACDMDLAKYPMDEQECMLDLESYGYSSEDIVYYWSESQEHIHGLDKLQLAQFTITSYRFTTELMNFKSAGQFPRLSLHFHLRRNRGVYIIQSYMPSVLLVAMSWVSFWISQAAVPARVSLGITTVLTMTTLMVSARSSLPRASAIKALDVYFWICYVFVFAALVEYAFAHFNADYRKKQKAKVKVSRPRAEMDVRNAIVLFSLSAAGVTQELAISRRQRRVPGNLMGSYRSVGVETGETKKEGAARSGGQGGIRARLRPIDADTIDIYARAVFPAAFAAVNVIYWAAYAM

[3] = molecular target: human α4β2δ GABAA receptor (Homo sapiens, UniProt O14764+P47870+P48169)
[4] = molecular target: human α6β2δ GABAA receptor (Homo sapiens, UniProt O14764+P47870+Q16445)
Chain of human α6β2δ GABAA receptor (Q16445 20-453, one chain of several): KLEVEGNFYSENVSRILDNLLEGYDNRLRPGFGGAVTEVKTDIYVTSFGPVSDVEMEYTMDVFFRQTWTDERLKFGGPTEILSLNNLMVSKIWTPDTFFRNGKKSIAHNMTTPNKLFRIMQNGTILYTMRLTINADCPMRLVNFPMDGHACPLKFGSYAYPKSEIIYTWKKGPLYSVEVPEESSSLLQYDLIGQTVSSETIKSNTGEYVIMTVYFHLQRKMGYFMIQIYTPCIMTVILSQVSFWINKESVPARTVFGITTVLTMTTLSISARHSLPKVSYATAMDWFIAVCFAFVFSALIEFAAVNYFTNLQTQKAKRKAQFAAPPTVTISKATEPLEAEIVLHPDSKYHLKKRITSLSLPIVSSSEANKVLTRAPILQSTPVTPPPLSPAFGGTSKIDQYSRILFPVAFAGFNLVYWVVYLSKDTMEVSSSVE

Chain of human α4β2δ GABAA receptor (P48169 36-554, one chain of several): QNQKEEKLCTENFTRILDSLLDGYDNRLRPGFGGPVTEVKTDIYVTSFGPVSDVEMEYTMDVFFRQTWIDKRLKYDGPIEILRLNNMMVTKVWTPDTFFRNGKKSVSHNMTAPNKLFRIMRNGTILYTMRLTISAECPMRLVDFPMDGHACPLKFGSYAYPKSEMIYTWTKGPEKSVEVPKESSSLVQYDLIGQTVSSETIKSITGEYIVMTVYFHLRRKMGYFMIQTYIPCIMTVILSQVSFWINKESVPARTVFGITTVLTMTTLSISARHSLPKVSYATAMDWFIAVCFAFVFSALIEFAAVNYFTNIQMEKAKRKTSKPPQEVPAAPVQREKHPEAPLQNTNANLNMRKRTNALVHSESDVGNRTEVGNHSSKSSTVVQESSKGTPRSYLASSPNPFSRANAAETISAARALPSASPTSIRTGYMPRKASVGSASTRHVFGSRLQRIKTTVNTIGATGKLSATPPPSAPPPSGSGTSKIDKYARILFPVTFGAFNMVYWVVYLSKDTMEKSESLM
Chain of human α6β2γ2s GABAA receptor (Q16445 20-453, one chain of several): as the sequence (Q16445 20-453, one chain of several) above
Chain of human α6β2γ2s GABAA receptor (P18507 40-467 isoform P18507-1 limits assumed, one chain of several): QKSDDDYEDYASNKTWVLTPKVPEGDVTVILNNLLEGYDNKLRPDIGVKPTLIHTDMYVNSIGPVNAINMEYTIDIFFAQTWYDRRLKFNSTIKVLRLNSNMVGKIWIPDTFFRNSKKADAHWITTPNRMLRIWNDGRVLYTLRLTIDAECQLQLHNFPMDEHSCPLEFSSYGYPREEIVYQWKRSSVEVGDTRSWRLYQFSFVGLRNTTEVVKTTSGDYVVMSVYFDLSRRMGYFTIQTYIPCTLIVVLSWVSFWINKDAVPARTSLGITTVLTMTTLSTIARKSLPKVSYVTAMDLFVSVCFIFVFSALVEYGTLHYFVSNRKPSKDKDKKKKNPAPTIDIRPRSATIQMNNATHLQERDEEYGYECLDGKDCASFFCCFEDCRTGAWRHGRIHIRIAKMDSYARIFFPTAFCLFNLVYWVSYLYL

## NCCCC(=O)O [GABA, γ-Aminobutyric acid]
[1]
  GABA EC20: 100 to 200 nM
[2]
  GABA EC20: 1600 to 2000 nM
[3]
  GABA EC20: 80 nM
[4]
  GABA EC20: 50 nM

Source: article PMC6648289 (ACS Omega, 2019)
